# ChEMBL document CHEMBL1128941, “Peptidomimetic inhibitors of herpes virus ribonucleotide reductase. Correlation between herpes simplex and varicella zoster virus” (Bioorg Med Chem Lett, 1996)
# Starred links: 1 amine or outer side, 2 acyl side, 3 side chain; linkers in the order of their positions; H or OH if unused. Non-standard residues stand in square brackets, D forms with d. Residues, ends and D or L forms follow the SMILES beside them. *: point of attachment. Asp(3,3-(CH2)4) = N[C@H](C(=O)O)C1(C(=O)O)CCCC1; Dibenzylacetyl = O=C(C(Cc1ccccc1)Cc1ccccc1)*; Hydrocinnamoyl = O=C(CCc1ccccc1)*; tBuAla = CC(C)(C)C[C@H](N)C(=O)O; Tle = CC(C)(C)[C@H](N)C(=O)O; NMeV = CN[C@H](C(=O)O)C(C)C; NH(3-pentyl) = CCC(CC)N*; Pyrrolidide = C1CCN(*)C1; CO = O=C([*:1])[*:2]; X1 = CCC(CC)OC(=O)*; X2 = CCC(CC)CC(=O)*
# What was measured:
# [1] = Inhibitory potency against Herpes Simplex virus ribonucleotide reductase; set-up: species or system Herpes simplex virus (type 1 / strain 17)
# [2] = Inhibitory potency against Varicella zoster virus ribonucleotide reductase
Molecule,IC50 [1],IC50 [2]
H-YAGTVINDL-OH,8000 nM,–
CCC(CC)CC(=O)N[C@H](C(=O)N[C@@H](CC(=O)N1CCCC1)C(=O)N[C@@H](CC(=O)O)C(=O)N[C@@H](CC(C)C)C(=O)O)C(C)(C)C (X2-[Tle]D(Pyrrolidide)DL-OH),140 nM,–
CC(C)C[C@H](NC(=O)[C@H](CC(=O)O)NC(=O)[C@H](CC(N)=O)NC(=O)[C@@H](NC(=O)[C@@H](NC(=O)CCc1ccccc1)C(C)C)C(C)C)C(=O)O,4000 nM,15000 nM
CC(C)C[C@H](NC(=O)[C@H](CC(=O)O)NC(=O)[C@H](CC(N)=O)NC(=O)[C@@H](NC(=O)[C@@H](NC(=O)[C@H](C)NC(=O)CNC(=O)[C@H](C)NC(=O)[C@@H](N)Cc1ccc(O)cc1)C(C)C)C(C)C)C(=O)O,25000 nM,–
"CC(C)C[C@H](NC(=O)[C@@H](NC(=O)[C@H](CC(=O)N1CCCC1)NC(=O)[C@@H](NC(=O)[C@@H](NC(=O)CCc1ccccc1)C(C)C)C(C)C)C1(C(=O)O)CCCC1)C(=O)O (Hydrocinnamoyl-VVD(Pyrrolidide)[Asp(3,3-(CH2)4)]L-OH)",1 nM,37 nM
CCC(CC)NC(=O)C[C@H](C(=O)N[C@@H](CC(=O)N1CCCC1)C(=O)N[C@@H](CC(=O)O)C(=O)N[C@@H](CC(C)C)C(=O)O)C(C)(C)C,5 nM,3500 nM
CC(C)C[C@H](NC(=O)[C@H](CC(=O)O)NC(=O)[C@H](CC(=O)N1CCCC1)NC(=O)[C@@H](NC(=O)[C@@H](NC(=O)CCc1ccccc1)C(C)C)C(C)(C)C)C(=O)O (Hydrocinnamoyl-V[Tle]D(Pyrrolidide)DL-OH),4 nM,123 nM
CC(C)C[C@H](NC(=O)[C@H](CC(=O)O)NC(=O)[C@H](CC(=O)N1CCCC1)NC(=O)[C@@H](NC(=O)[C@@H](NC(=O)C(Cc1ccccc1)Cc1ccccc1)C(C)C)C(C)C)C(=O)O (Dibenzylacetyl-VVD(Pyrrolidide)DL-OH),0.7 nM,22 nM
CC(C)C[C@H](NC(=O)[C@H](CC(=O)O)NC(=O)[C@H](CC(=O)N1CCCC1)NC(=O)[C@@H](NC(=O)[C@@H](NC(=O)CCc1ccccc1)C(C)C)C(C)C)C(=O)O (Hydrocinnamoyl-VVD(Pyrrolidide)DL-OH),24 nM,588 nM
CCC(CC)NC(=O)N[C@H](C(=O)N[C@@H](CC(=O)N1CCCC1)C(=O)N[C@@H](CC(=O)O)C(=O)N[C@@H](CC(C)C)C(=O)O)C(C)(C)C ({NH(3-pentyl)-CO}-[Tle]D(Pyrrolidide)DL-OH),3 nM,925 nM
CCC(CC)OC(=O)N[C@H](C(=O)N[C@@H](CC(=O)N1CCCC1)C(=O)N[C@@H](CC(=O)O)C(=O)N[C@@H](CC(C)C)C(=O)O)C(C)(C)C (X1-[Tle]D(Pyrrolidide)DL-OH),635 nM,7000 nM
CC(C)[C@H](NC(=O)CCc1ccccc1)C(=O)N[C@H](C(=O)N[C@@H](CC(=O)N1CCCC1)C(=O)N[C@@H](CC(=O)O)C(=O)N[C@@H](CC(C)(C)C)C(=O)O)C(C)C (Hydrocinnamoyl-VVD(Pyrrolidide)D[tBuAla]-OH),5 nM,9800 nM
CC(C)C[C@H](NC(=O)[C@H](CC(=O)O)NC(=O)[C@H](CC(=O)N1CCCC1)NC(=O)[C@@H](NC(=O)[C@H](C(C)C)N(C)C(=O)CCc1ccccc1)C(C)C)C(=O)O (Hydrocinnamoyl-[NMeV]VD(Pyrrolidide)DL-OH),7.5 nM,210 nM
